Data set [1] can be described thus: physchem. As to conditions: PAMPA, pH 7.4.
Description: Permeability of the compound at 10 uM at pH 7.4 after 3 hrs by PAMPA
Data set [2] can be described thus: physchem. As to conditions: aqueous buffer, pH 6.8.
Description: Solubility of the compound in pH 6.8 aqueous buffer by UV absorbance method
The nature of data set [3]: physchem. The conditions noted are these: 1-octanol/aqueous buffer, pH 7.4.
In data set [4] the target is Eukaryotic initiation factor 4A-I (Homo sapiens, UniProt P60842).
Description: Inhibition of eIF4G-induced full length recombinant human N-terminal His6/SUMO-tagged eIF4A1 RNA dependent ATPase activity expressed in Escherichia coli BL21(DE3) using single stranded poly(U) RNA as substrate after 30 mins by ADP-Glo luminescence assay
For data set [5], the target named is Eukaryotic initiation factor 4A-III (Homo sapiens, UniProt P38919).
Description: Inhibition of MLN51-induced full length recombinant human N-terminal His6/SUMO-tagged eIF4A3 RNA dependent ATPase activity expressed in Escherichia coli BL21(DE3) using single stranded poly(U) RNA as substrate after 30 mins by ADP-Glo luminescence assay
The target of data set [6] is T1, U5 small nuclear ribonucleoprotein 200 kDa helicase (Homo sapiens, UniProt O75643). As to the kind of experiment: biochemical.
Description: Inhibition of full length recombinant human N-terminal His-tagged BRR2 RNA dependent ATPase activity expressed in baculovirus infected Sf9 cells using single stranded poly(U) RNA as substrate after 30 mins by ADP-Glo luminescence assay
Data set [7] has as its target T2, ATP-dependent RNA helicase DHX29 (Homo sapiens, UniProt Q7Z478).
T2 sequence (Q7Z478 whole entry): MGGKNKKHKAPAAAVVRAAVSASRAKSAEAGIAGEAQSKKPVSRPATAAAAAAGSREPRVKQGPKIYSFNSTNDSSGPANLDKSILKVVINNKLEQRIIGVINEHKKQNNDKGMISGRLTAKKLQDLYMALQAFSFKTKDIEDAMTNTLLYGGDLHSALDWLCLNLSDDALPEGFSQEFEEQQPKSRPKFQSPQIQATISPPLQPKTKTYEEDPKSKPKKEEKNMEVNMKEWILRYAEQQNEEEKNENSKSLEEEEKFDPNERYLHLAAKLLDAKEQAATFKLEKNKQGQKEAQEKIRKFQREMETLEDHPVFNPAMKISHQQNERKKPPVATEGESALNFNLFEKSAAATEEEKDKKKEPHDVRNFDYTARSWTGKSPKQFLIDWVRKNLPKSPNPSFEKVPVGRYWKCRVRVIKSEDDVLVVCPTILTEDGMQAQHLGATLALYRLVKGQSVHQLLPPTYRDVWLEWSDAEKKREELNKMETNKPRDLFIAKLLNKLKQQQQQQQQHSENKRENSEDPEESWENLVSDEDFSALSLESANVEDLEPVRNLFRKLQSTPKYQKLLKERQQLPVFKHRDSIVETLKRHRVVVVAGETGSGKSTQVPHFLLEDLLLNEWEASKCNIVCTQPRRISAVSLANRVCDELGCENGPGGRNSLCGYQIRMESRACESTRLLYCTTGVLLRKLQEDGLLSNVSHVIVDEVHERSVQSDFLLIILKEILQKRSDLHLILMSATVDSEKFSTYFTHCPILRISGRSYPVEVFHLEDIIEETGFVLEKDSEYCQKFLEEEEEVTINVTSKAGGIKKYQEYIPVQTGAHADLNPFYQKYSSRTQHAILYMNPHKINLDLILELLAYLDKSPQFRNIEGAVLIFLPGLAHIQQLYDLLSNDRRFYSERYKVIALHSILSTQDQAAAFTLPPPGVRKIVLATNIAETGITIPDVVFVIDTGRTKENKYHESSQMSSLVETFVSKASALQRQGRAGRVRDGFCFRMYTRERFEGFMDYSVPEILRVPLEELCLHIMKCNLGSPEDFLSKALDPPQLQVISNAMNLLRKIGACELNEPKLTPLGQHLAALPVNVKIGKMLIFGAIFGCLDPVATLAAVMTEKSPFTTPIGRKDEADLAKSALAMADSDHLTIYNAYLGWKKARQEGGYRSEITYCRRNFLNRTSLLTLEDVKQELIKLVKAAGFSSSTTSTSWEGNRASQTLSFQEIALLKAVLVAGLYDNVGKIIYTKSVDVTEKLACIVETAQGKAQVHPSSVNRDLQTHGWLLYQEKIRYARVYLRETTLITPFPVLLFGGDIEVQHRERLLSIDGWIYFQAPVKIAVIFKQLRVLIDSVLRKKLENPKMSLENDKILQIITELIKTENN
As to the kind of experiment: biochemical.
Description: Inhibition of full length recombinant human N-terminal FLAG-His-tagged DHX29 RNA dependent ATPase activity expressed in baculovirus infected Sf9 insect cells using single stranded poly(U) RNA as substrate after 30 mins by ADP-Glo luminescence assay

Data set [8] concerns the target T1, U5 small nuclear ribonucleoprotein 200 kDa helicase. As to the kind of experiment: biochemical. The source holds these as a separate data set.

≈ marks a conversion by molar mass, not a printed value. Where only a bound is given, the exact number is not on record here.

Chain of Eukaryotic initiation factor 4A-I (P60842 whole entry): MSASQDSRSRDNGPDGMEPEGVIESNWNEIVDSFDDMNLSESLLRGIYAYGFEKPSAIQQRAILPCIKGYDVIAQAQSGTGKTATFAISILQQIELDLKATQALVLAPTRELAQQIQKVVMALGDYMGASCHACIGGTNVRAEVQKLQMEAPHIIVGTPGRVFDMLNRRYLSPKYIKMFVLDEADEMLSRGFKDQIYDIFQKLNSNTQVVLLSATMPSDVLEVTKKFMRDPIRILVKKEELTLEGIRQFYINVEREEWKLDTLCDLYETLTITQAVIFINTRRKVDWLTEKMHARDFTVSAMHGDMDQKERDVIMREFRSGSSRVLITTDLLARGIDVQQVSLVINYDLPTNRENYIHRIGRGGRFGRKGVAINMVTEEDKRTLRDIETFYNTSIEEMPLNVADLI
Chain of Eukaryotic initiation factor 4A-III (P38919 whole entry): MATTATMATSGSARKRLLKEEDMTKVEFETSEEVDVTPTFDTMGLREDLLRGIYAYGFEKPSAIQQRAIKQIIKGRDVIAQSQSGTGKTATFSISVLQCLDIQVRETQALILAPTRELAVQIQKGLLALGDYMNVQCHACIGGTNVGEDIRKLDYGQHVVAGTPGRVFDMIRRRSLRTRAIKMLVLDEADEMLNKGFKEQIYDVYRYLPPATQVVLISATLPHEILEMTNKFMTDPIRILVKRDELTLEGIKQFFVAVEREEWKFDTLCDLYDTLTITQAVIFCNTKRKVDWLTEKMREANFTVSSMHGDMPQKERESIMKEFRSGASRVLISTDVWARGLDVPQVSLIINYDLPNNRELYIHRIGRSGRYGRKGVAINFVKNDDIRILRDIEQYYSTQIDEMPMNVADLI
T1 sequence (O75643 whole entry): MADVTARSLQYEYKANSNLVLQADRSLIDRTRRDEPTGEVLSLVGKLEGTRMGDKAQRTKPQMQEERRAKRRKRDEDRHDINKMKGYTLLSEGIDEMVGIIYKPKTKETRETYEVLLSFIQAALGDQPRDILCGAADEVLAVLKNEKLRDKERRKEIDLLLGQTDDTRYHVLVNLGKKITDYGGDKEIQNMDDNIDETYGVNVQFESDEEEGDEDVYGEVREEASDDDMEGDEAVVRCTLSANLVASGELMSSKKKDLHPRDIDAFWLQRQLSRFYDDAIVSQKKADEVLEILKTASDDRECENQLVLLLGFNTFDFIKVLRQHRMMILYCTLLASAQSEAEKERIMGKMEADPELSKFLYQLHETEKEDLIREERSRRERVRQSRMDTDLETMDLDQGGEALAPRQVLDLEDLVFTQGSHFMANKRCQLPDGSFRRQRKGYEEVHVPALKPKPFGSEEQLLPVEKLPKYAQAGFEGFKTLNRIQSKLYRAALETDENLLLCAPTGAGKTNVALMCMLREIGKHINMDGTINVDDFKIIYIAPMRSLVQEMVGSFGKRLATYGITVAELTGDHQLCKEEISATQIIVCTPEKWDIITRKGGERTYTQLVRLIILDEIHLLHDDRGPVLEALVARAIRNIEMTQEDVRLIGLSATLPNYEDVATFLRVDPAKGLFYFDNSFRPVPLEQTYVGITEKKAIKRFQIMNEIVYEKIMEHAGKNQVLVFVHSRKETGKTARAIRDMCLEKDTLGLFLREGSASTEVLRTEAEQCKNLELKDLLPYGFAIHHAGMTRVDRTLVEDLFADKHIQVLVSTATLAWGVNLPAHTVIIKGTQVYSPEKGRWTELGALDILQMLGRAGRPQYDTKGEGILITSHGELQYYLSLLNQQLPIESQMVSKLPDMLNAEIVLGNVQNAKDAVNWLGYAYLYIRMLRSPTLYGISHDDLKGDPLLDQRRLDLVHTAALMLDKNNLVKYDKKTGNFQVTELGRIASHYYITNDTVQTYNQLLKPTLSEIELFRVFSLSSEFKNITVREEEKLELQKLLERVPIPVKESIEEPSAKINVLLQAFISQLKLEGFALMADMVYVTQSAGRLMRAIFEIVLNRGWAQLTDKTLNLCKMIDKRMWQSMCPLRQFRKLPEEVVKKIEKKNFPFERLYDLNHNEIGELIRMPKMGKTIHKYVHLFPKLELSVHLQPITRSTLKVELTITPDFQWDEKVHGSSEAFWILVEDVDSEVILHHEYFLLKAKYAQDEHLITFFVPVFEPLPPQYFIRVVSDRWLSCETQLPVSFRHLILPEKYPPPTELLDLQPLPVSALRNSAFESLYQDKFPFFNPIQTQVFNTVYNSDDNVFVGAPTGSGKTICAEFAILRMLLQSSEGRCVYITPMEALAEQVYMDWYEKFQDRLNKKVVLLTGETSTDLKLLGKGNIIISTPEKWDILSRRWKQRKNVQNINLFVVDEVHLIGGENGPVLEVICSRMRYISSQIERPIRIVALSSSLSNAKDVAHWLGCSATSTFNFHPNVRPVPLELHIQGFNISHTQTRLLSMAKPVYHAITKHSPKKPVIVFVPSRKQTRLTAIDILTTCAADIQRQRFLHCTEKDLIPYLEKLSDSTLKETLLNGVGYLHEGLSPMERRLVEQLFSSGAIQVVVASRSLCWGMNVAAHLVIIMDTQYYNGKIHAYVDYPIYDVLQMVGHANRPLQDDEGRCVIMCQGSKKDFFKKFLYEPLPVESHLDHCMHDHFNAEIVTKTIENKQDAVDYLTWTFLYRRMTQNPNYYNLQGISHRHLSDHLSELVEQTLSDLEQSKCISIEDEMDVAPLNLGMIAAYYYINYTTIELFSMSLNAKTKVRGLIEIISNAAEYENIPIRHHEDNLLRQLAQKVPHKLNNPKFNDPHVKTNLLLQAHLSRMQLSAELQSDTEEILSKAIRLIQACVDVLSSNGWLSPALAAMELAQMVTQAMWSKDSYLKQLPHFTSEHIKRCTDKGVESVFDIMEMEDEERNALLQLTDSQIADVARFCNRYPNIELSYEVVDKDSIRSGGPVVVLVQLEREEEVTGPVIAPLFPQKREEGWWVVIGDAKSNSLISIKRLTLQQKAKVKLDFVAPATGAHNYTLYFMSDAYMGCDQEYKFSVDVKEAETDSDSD

On to `O=C1Nc2cc(=O)n(Cc3ccccc3)cc2CN1c1cccc(OCc2ccccn2)c1`, for which the Papp (commonly a coefficient for how fast a substance crosses the barrier) at 3 h, 10 µM in data set [1] worked out at 27.3 ×10⁻⁶ cm/s. Also, in data set [2], the solubility (in general, how much of the substance goes into solution per volume) turned out to be 69 µg/mL (≈ 157 µM). For the same compound, in data set [3], the chromatographic logD (usually a lipophilicity value derived from retention on a column) worked out at 2.
As to `O=C1Nc2cc(=O)n(Cc3ccccc3)cc2CN1c1cccc(OCc2cncs2)c1`, the IC50 (usually the concentration needed to halve the response being measured) was greater than 100 µM in data set [4]; greater than 100 µM in data set [5]; 0.079 µM in data set [6]; greater than 100 µM in data set [7]; 1.3 µM in data set [8]. The compound further displayed an apparent permeability coefficient (Papp) at 3 h, 10 µM in data set [1] of 13.1 ×10⁻⁶ cm/s. This compound also showed a solubility in data set [2] of 49 µg/mL (≈ 110 µM). In data set [3], this compound yielded a chromatographic logD of 1.7.
In the case of `N=C1/C(=C/c2ccc(-c3cccc(C(=O)O)c3)o2)C(=O)N=C2SC(C3CCCCC3)=NN12`, the IC50 is 57 µM in data set [4], 32 µM in data set [5], 5.3 µM in data set [6] and 58 µM in data set [7].
Take `O=C1Nc2cc(=O)n(Cc3ccccc3)cc2CN1c1cccc(OCc2cccnc2)c1`: the IC50 was greater than 100 µM in data set [4], greater than 100 µM in data set [5] and 0.18 µM in data set [6]. For the same compound, the Papp at 3 h, 10 µM in data set [1] stood at 14.2 ×10⁻⁶ cm/s. In data set [2], this compound showed a solubility of 59 µg/mL (≈ 135 µM). Also, the chromatographic logD in data set [3] was determined as 1.9.
For the compound `Cc1cc2c(cc1N1Cc3cn(Cc4ccccc4)c(=O)cc3N(C)C1=O)OC(c1ncccc1F)CC2` (racemic), the IC50 in data set [6] is greater than 100 µM.
For `Cc1cc2c(cc1N1Cc3cn(Cc4ccccc4)c(=O)cc3NC1=O)OC(c1ncccc1F)CC2` (racemic), the IC50 in data set [4] was greater than 100 µM; in data set [5], greater than 100 µM; in data set [6], 5.3 µM; in data set [7], greater than 100 µM.
Compound `Cc1cc2c(cc1N1Cc3cn(C)c(=O)cc3NC1=O)OC(c1ncccc1F)CC2` (racemic) had an IC50 in data set [6] greater than 100 µM.

(Values after ChEMBL document CHEMBL4014351, “Discovery of Allosteric Inhibitors Targeting the Spliceosomal RNA Helicase Brr2” (J Med Chem, 2017).)
